Assay results: patent publication US20260053834A1, “COVALENT MODIFIERS OF AKT1 AND USES THEREOF” (Terremoto Biosciences, Inc., priority 2023, published 2026)
pIC50: −log10 of the molar value.

Key:
[1] = system: LAPC4 prostate cancer cells, which express the AKT1 E17K allele; assay: Antiproliferative effects in LAPC4 cells (CellTiter Glo, 72 h); format: cell-based; conditions: Homo sapiens, LAPC4, 72 h, read-out: LAPC4 proliferation IC50: GeoMean IC50
How it was run: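 IC50 values come from Hill-equation fitting of luminescence (cellular ATP) after 72 h compound exposure. Treated wells held 1,000 cells each, with compound delivered as DMSO dilutions. Culture medium was IMDM plus 12% FBS.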

AKT1 E17K = molecular target: T1, AKT1 E17K (Homo sapiens, UniProt P31749, E17K); assay: Live cell target engagement by NanoBRET competitive probe displacement, AKT1 E17K; format: binding; conditions: transfected HEK293 cells, 2 h at 37° C., read-out: AKT1 E17K IC50: GeoMean IC50
T1 construct: expressed in transfected cells; host or cells: HEK293

AKT1 WT = molecular target: T2, AKT1 WT (Homo sapiens, UniProt P31749); assay: Live cell target engagement by NanoBRET competitive probe displacement, AKT1 WT; format: binding; conditions: transfected HEK293 cells, 2 h at 37° C., read-out: AKT1 WT IC50: GeoMean IC50
T2 construct: expressed in transfected cells; host or cells: HEK293

AKT2 = molecular target: T3, AKT2 (Homo sapiens, UniProt P31751); assay: Live cell target engagement by NanoBRET competitive probe displacement, AKT2; format: binding; conditions: transfected HEK293 cells, 2 h at 37° C., read-out: AKT2 IC50: GeoMean IC50
T3 construct: expressed in transfected cells; host or cells: HEK293
T3 sequence (P31751 whole entry): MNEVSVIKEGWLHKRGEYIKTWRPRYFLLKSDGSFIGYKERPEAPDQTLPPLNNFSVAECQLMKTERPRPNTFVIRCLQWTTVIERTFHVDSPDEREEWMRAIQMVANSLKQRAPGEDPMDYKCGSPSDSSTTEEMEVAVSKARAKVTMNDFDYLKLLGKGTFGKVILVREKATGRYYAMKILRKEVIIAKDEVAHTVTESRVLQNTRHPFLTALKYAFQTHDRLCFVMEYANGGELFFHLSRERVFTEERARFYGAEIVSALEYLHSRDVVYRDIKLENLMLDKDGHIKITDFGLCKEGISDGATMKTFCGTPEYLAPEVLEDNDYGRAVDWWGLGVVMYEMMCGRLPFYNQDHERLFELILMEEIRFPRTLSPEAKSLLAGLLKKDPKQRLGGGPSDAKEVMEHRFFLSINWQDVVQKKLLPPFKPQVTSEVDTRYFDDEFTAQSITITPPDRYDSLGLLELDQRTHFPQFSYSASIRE

T1 sequence (P31749 whole entry E17K): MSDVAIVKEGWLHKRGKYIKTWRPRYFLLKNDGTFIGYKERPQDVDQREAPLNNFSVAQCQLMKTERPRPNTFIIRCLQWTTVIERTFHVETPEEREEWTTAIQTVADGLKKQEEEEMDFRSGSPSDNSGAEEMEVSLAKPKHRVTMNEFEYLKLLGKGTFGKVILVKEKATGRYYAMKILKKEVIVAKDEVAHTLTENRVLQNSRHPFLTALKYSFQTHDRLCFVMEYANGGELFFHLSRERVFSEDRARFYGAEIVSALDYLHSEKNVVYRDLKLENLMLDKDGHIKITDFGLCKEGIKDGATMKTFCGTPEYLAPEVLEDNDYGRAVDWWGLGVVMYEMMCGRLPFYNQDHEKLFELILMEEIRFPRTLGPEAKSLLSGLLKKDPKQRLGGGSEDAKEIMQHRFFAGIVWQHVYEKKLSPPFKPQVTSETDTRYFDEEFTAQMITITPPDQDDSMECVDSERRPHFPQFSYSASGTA
T2 sequence (P31749 whole entry): as the sequence (P31749 whole entry E17K) above, with K17E counted along it

| pIC50 [1] | pIC50 (AKT1 E17K) | pIC50 (AKT1 WT) | pIC50 (AKT2) | SMILES |
| --- | --- | --- | --- | --- |
| 5.70 to 7.00 | 7.00 to 8.00 | 5.70 to 7.00 | 5.70 to 7.00 | [2H]C(=O)c1cc(C(=O)N[C@H]2CCc3cc(-n4c(-c5cccnc5N)nc5ccc(-n6ccc(F)n6)nc54)ccc32)ccc1O [Example 190, (S)—N-(5-(2-(2-aminopyridin-3-yl)-5-(3-fluoro-1H-pyrazol-1-yl)-3H-imidazo[4,5-b]pyridin-3-yl)-2,3-dihydro-1-H-inden-1-yl)-3-(formyl-d)-4-hydroxybenzamide] |
| 7.00 to 8.00 | 7.00 to 8.00 | 7.00 to 8.00 | 5.70 to 7.00 | Nc1ncccc1-c1nc2ccc(-c3cscn3)nc2n1-c1ccc2c(c1)CC[C@@H]2NC(=O)c1ccc(O)c(C=O)c1 [Example 88, N-[(1S)-5-[2-(2-aminopyridin-3-yl)-5-(1,3-thiazol-4-yl)imidazo[4,5-b]pyridin-3-yl]-2,3-dihydro-1H-inden-1-yl]-3-formyl-4-hydroxybenzamide] |
| 5.70 to 7.00 | 7.00 to 8.00 | 5.70 to 7.00 | 5.70 to 7.00 | Nc1ncccc1-c1nc2ccc(-c3ncc[nH]3)nc2n1-c1ccc2c(c1)CC[C@@H]2NC(=O)c1ccc(O)c(C=O)c1 [Example 194, N-[(1S)-5-[2-(2-aminopyridin-3-yl)-5-(1H-imidazol-2-yl)imidazo[4,5-b]pyridin-3-yl]-2,3-dihydro-1H-inden-1-yl]-3-formyl-4-hydroxybenzamide] |
| 7.00 to 8.00 | 7.00 to 8.00 | 7.00 to 8.00 | 5.70 to 7.00 | Cc1cc(-n2nccn2)nc2c1nc(-c1cccnc1N)n2-c1ccc2c(c1)CC[C@@H]2NC(=O)c1ccc(O)c(C=O)c1 [Example 234, N-[(1S)-5-[2-(2-aminopyridin-3-yl)-7-methyl-5-(1,2,3-triazol-2-yl)imidazo[4,5-b]pyridin-3-yl]-2,3-dihydro-1H-inden-1-yl]-3-formyl-4-hydroxybenzamide] |
| 7.00 to 8.00 | 7.00 to 8.00 | 7.00 to 8.00 | 7.00 to 8.00 | Nc1ncccc1-c1nc2ccc(-n3cccn3)nc2n1-c1ccc2c(c1)CC[C@@H]2NC(=O)c1cc(C=O)c(O)c(F)c1F [Example 82, (S)—N-(5-(2-(2-aminopyridin-3-yl)-5-(1H-pyrazol-1-yl)-3H-imidazo[4,5-b]pyridin-3-yl)-2,3-dihydro-1H-inden-1-yl)-2,3-difluoro-5-formyl-4-hydroxybenzamide] |
| 5.70 to 7.00 | 7.00 to 8.00 | 5.70 to 7.00 | 5.70 to 7.00 | Nc1ncccc1-c1nc2ccc(-n3cncn3)nc2n1-c1ccc2c(c1)CC[C@@H]2NC(=O)c1ccc(O)c(C=O)c1 [Example 97, N-[(1S)-5-[2-(2-aminopyridin-3-yl)-5-(1,2,4-triazol-1-yl)imidazo[4,5-b]pyridin-3-yl]-2,3-dihydro-1H-inden-1-yl]-3-formyl-4-hydroxybenzamide] |
| 5.70 to 7.00 | 7.00 to 8.00 | 5.70 to 7.00 | 5.70 to 7.00 | Nc1ccn(-c2ccc3nc(-c4cccnc4N)n(-c4ccc5c(c4)CC[C@@H]5NC(=O)c4ccc(O)c(C=O)c4)c3n2)n1 [Example 134, N-[(1S)-5-[5-(3-aminopyrazol-1-yl)-2-(2-aminopyridin-3-yl)imidazo[4,5-b]pyridin-3-yl]-2,3-dihydro-1H-inden-1-yl]-3-formyl-4-hydroxybenzamide] |
| 7.00 to 8.00 | 7.00 to 8.00 | 7.00 to 8.00 | 5.70 to 7.00 | Nc1ncccc1-c1nc2ccc(-c3cnn(C(F)F)c3)nc2n1-c1ccc2c(c1)CC[C@@H]2NC(=O)c1ccc(O)c(C=O)c1 [Example 61, N-[(1S)-5-[2-(2-aminopyridin-3-yl)-5-[1-(difluoromethyl)pyrazol-4-yl]imidazo[4,5-b]pyridin-3-yl]-2,3-dihydro-1H-inden-1-yl]-3-formyl-4-hydroxybenzamide] |
| 5.70 to 7.00 | 7.00 to 8.00 | 7.00 to 8.00 | 5.70 to 7.00 | Nc1ncccc1-c1nc2ccc(-n3cccn3)nc2n1-c1ccc2c(c1)CC[C@@H]2NC(=O)c1cc(C=O)c(O)cc1-n1cccn1 [Example 205, N-[(1S)-5-[2-(2-aminopyridin-3-yl)-5-(pyrazol-1-yl)imidazo[4,5-b]pyridin-3-yl]-2,3-dihydro-1H-inden-1-yl]-5-formyl-4-hydroxy-2-(pyrazol-1-yl)benzamide] |
| 5.70 to 7.00 | 5.70 to 7.00 | 5.70 to 7.00 | ≤ 5.70 | Nc1ncccc1-c1nc2ccc(C3CC3)nc2n1-c1ccc2c(c1)CC[C@@H]2NC(=O)c1ccc(O)c(C=O)c1 [Example 49, N-[(1S)-5-[2-(2-aminopyridin-3-yl)-5-cyclopropylimidazo[4,5-b]pyridin-3-yl]-2,3-dihydro-1H-inden-1-yl]-3-formyl-4-hydroxybenzamide] |
| > 8.00 | > 8.00 | > 8.00 | 7.00 to 8.00 | Nc1ncccc1-c1nc2ccc(-c3nccs3)nc2n1-c1ccc2c(c1)CC[C@@H]2NC(=O)c1cc(C=O)c(O)c(F)c1F [Example 140, (S)—N-(5-(2-(2-aminopyridin-3-yl)-5-(thiazol-2-yl)-3H-imidazo[4,5-b]pyridin-3-yl)-2,3-dihydro-1H-inden-1-yl)-2,3-difluoro-5-formyl-4-hydroxybenzamide] |
| 7.00 to 8.00 | 7.00 to 8.00 | 7.00 to 8.00 | 7.00 to 8.00 | Nc1ncccc1-c1nc2ccc(-c3nccs3)nc2n1-c1ccc2c(c1)CC[C@@H]2NC(=O)c1cc(C=O)c(O)cc1F [Example 144, N-[(1S)-5-[2-(2-aminopyridin-3-yl)-5-(1,3-thiazol-2-yl)imidazo[4,5-b]pyridin-3-yl]-2,3-dihydro-1H-inden-1-yl]-2-fluoro-5-formyl-4-hydroxybenzamide] |
| ≤ 5.70 | 5.70 to 7.00 | 5.70 to 7.00 | ≤ 5.70 | Nc1ncccc1-c1nc2ccc(C(F)(F)F)nc2n1-c1ccc2c(c1)CC[C@@H]2NC(=O)c1ccc(O)c(C=O)c1 [Example 55, (S)—N-(5-(2-(2-aminopyridin-3-yl)-5-(trifluoromethyl)-3H-imidazo[4,5-b]pyridin-3-yl)-2,3-dihydro-1H-inden-1-yl)-3-formyl-4-hydroxybenzamide] |
| 5.70 to 7.00 | 5.70 to 7.00 | 5.70 to 7.00 | 5.70 to 7.00 | Cc1cc(-n2cccn2)nc2c1nc(-c1cccnc1N)n2-c1ccc2c(c1)CC[C@@H]2n1cnc2cc(O)c(C=O)cc2c1=O [Example 220, (S)-3-(5-(2-(2-aminopyridin-3-yl)-7-methyl-5-(1H-pyrazol-1-yl)-3H-imidazo[4,5-b]pyridin-3-yl)-2,3-dihydro-1H-inden-1-yl)-7-hydroxy-4-oxo-3,4-dihydroquinazoline-6-carbaldehyde] |
| 5.70 to 7.00 | 7.00 to 8.00 | 5.70 to 7.00 | ≤ 5.70 | Nc1ncccc1-c1nc2cccnc2n1-c1ccc2c(c1)CC[C@@H]2NC(=O)c1ccc(O)c(C=O)c1 [Example 15, N-[(1S)-5-[2-(2-aminopyridin-3-yl)imidazo[4,5-b]pyridin-3-yl]-2,3-dihydro-1H-inden-1-yl]-3-formyl-4-hydroxybenzamide] |
| 7.00 to 8.00 | 7.00 to 8.00 | 7.00 to 8.00 | 7.00 to 8.00 | Cc1cc(-n2cccn2)nc2c1nc(-c1cccnc1N)n2-c1ccc2c(c1)CC[C@@H]2NC(=O)c1cc(C=O)c(O)cc1F [Example 202, (S)—N-(5-(2-(2-aminopyridin-3-yl)-7-methyl-5-(1H-pyrazol-1-yl)-3H-imidazo[4,5-b]pyridin-3-yl)-2,3-dihydro-1H-inden-1-yl)-2-fluoro-5-formyl-4-hydroxybenzamide] |
| ≤ 5.70 | ≤ 5.70 | ≤ 5.70 | ≤ 5.70 | Nc1ncccc1-c1nc2ccc(-n3cccn3)nc2n1-c1ccc2c(c1)CC[C@@H]2N1Cc2cc(O)c(C=O)cc2C1=O [Example 208, (S)-2-(5-(2-(2-aminopyridin-3-yl)-5-(1H-pyrazol-1-yl)-3H-imidazo[4,5-b]pyridin-3-yl)-2,3-dihydro-1H-inden-1-yl)-6-hydroxy-3-oxoisoindoline-5-carbaldehyde] |
| 7.00 to 8.00 | 7.00 to 8.00 | 7.00 to 8.00 | 5.70 to 7.00 | Cn1ccc(-c2ccc3nc(-c4cccnc4N)n(-c4ccc5c(c4)CC[C@@H]5NC(=O)c4ccc(O)c(C=O)c4)c3n2)n1 [Example 59, (S)—N-(5-(2-(2-aminopyridin-3-yl)-5-(1-methyl-1H-pyrazol-3-yl)-3Himidazo[4,5-b]pyridin-3-yl)-2,3-dihydro-1H-inden-1-yl)-3-formyl-4-hydroxybenzamide] |
| 7.00 to 8.00 | > 8.00 | 7.00 to 8.00 | 5.70 to 7.00 | Nc1ncccc1-c1nc2ccc(-n3cccn3)nc2n1-c1ccc2c(c1)CC[C@@H]2NC(=O)c1cc(C=O)c2[nH]ncc2c1 [Example 66, N-[(1S)-5-[2-(2-aminopyridin-3-yl)-5-(pyrazol-1-yl)imidazo[4,5-b]pyridin-3-yl]-2,3-dihydro-1H-inden-1-yl]-7-formyl-1H-indazole-5-carboxamide] |
| 7.00 to 8.00 | 7.00 to 8.00 | 7.00 to 8.00 | 5.70 to 7.00 | Nc1ncccc1-c1nc2cc(O)c(-n3cccn3)nc2n1-c1ccc2c(c1)CC[C@@H]2NC(=O)c1cc(C=O)c(O)cc1F [Example 226, N-[(1S)-5-[2-(2-aminopyridin-3-yl)-6-hydroxy-5-(pyrazol-1-yl)imidazo[4,5-b]pyridin-3-yl]-2,3-dihydro-1H-inden-1-yl]-2-fluoro-5-formyl-4-hydroxybenzamide] |
